ChEMBL document CHEMBL1132632, “Conformational and quantitative structure-activity relationship study of cytotoxic 2-arylidenebenzocycloalkanones” (J Med Chem, 1999)
pIC50: −log10 of the molar value.

Key:
L1210 [1] = assay: Inhibitory activity was tested against L1210 cells; type: functional, cell-based; settings: Mus musculus
L1210 [2] = assay: Average potency against L1210 cells; type: functional, Mus musculus
CCRF-CEM [3] = assay: Average potency against CEM cells; type: functional, Homo sapiens
MOLT-4 [4] = assay: Average potency against Molt4/C8cells; type: functional, Homo sapiens
P388 [5] = assay: Inhibitory activity was tested against P388 cells; type: functional, cell-based; settings: Mus musculus
P388 [6] = assay: Average potency against P388 cells; type: functional, Mus musculus
MOLT-4 [7] = assay: Inhibitory activity was tested against Molt4/C8 cells; type: functional, cell-based; settings: Homo sapiens
CCRF-CEM [8] = assay: Inhibitory activity was tested against CEM cells; type: functional, cell-based; settings: Homo sapiens

SMILES	pIC50 (L1210 [1])	AP (L1210 [2])	AP (CCRF-CEM [3])	AP (MOLT-4 [4])	pIC50 (P388 [5])	AP (P388 [6])	pIC50 (MOLT-4 [7])	pIC50 (CCRF-CEM [8])
COc1cccc(/C=C2\CCc3ccccc3C2=O)c1	4.22	135 µM	115 µM	158 µM	4.75	20.9 µM	4.92	5.06
O=C1CCCCC/C1=C\c1cccc(Br)c1	3.61	227 µM	136 µM	186 µM	4.62	34.5 µM	3.75	3.86
O=C1/C(=C/c2ccc(Cl)cc2)CCc2ccccc21	4.16	135 µM	115 µM	158 µM	4.68	20.9 µM	< 3.30	4.32
O=C1/C(=C/c2ccc(F)cc2)CCCc2ccccc21	4.22	85.2 µM	47 µM	66 µM	4.95	11.2 µM	4.27	4.70
O=C1/C(=C/c2ccc(Cl)cc2)Cc2ccccc21	4.27	127 µM	155 µM	267 µM	< 4.30	42.9 µM	< 3.30	3.55
O=C1/C(=C/c2cccc(Br)c2)CCCc2ccccc21	4.29	85.2 µM	47 µM	66 µM	4.98	11.2 µM	4.77	5.05
O=C1/C(=C/c2ccccc2)Cc2ccccc21	3.95	127 µM	155 µM	267 µM	< 4.30	42.9 µM	4.37	4.38
O=C1/C(=C/c2cccc(Cl)c2)CCc2ccccc21	3.93	135 µM	115 µM	158 µM	4.77	20.9 µM	4.38	5.04
CN(C)c1ccc(/C=C2\CCc3ccccc3C2=O)cc1	4.76	135 µM	115 µM	158 µM	5.28	20.9 µM	5.68	5.78
O=C1/C(=C/c2ccc([N+](=O)[O-])cc2)CCc2ccccc21	< 3.30	135 µM	115 µM	158 µM	< 4.30	20.9 µM	< 3.30	< 3.30
O=C1/C(=C/c2ccc(Br)cc2)CCCc2ccccc21	4.29	85.2 µM	47 µM	66 µM	4.73	11.2 µM	4.26	4.77
O=C1/C(=C/c2cccc(Cl)c2)Cc2ccccc21	4.39	127 µM	155 µM	267 µM	4.58	42.9 µM	4.29	4.50
Cc1ccc(/C=C2\Cc3ccccc3C2=O)cc1	4.23	127 µM	155 µM	267 µM	4.41	42.9 µM	< 3.30	4.17
Cc1cccc(/C=C2\Cc3ccccc3C2=O)c1	4.30	127 µM	155 µM	267 µM	4.60	42.9 µM	4.10	4.38
O=C1/C(=C/c2ccc(F)cc2)Cc2ccccc21	4.05	127 µM	155 µM	267 µM	< 4.30	42.9 µM	4.22	4.37
O=C1CCCCC/C1=C\c1ccc(Br)cc1	4.16	227 µM	136 µM	186 µM	4.77	34.5 µM	4.31	4.37
CN(C)c1ccc(/C=C2\Cc3ccccc3C2=O)cc1	4.21	127 µM	155 µM	267 µM	< 4.30	42.9 µM	3.87	4.39
O=C1/C(=C/c2cccc([N+](=O)[O-])c2)CCc2ccccc21	3.60	135 µM	115 µM	158 µM	4.92	20.9 µM	5.10	5.28
O=C1/C(=C/c2ccccc2)CCc2ccccc21	3.92	135 µM	115 µM	158 µM	4.52	20.9 µM	4.49	5.13
COc1ccc(/C=C2\Cc3ccccc3C2=O)cc1	4.34	127 µM	155 µM	267 µM	< 4.30	42.9 µM	3.65	4.49
Cc1ccc(/C=C2\CCc3ccccc3C2=O)cc1	3.79	135 µM	115 µM	158 µM	4.75	20.9 µM	< 3.30	3.34
O=C1/C(=C/c2ccc(Br)cc2)Cc2ccccc21	4.19	127 µM	155 µM	267 µM	< 4.30	42.9 µM	< 3.30	3.52
O=C1/C(=C/c2cccc(F)c2)CCc2ccccc21	4.21	135 µM	115 µM	158 µM	4.51	20.9 µM	4.92	5.10
Cc1cccc(/C=C2\CCc3ccccc3C2=O)c1	4.14	135 µM	115 µM	158 µM	4.79	20.9 µM	4.45	5.03
O=C1/C(=C/c2ccc(F)cc2)CCc2ccccc21	4.31	135 µM	115 µM	158 µM	4.80	20.9 µM	4.39	4.48
O=C1/C(=C/c2ccc([N+](=O)[O-])cc2)Cc2ccccc21	< 3.30	127 µM	155 µM	267 µM	< 4.30	42.9 µM	< 3.30	< 3.30
COc1ccc(/C=C2\CCc3ccccc3C2=O)cc1	4.36	135 µM	115 µM	158 µM	4.66	20.9 µM	5.03	5.05
